Test results: patent US20060264455A1 (priority 2005, published 2006)
Where two headings read alike, the source gives them in different places.

How the values were obtained:
[1] = Toxicity Model (TOX), rotorod, mice; format: in vivo; settings: male, CFI, mouse, in vivo, ip; mice
From the text: (§1) To investigate the neurotoxicity levels of the huperzine compounds, the Toxicity Model (TOX) using a rotorod is employed. The animals (e.g., mice) were trained to stand on an accelerating rotorod rotating at 10 rev min^−1 with a diameter of 3.2 cm. The trained animal can be given the huperzine compound at various doses and the effect of huperzine on their motor skills can be determined. The dose at which the animals fell off the rotorod is the toxic dose.
(§2) The neurotoxicity of huperzine was tested in the rotorod test. The mice were trained to stand on an accelerating rotorod rotating at 10 rev min^−1 with a diameter of 3.2 cm. The trained animals were given the huperzine at various doses and the effect of huperzine on their motor skills was determined. The dose at which the animals fell off the rotorod was the toxic dose.

[2] = system: motor skills on rotorod; assay: Toxicity Model (TOX), rotorod, mice; format: in vivo; settings: for N/F (mice showing an effect / mice tested), TOX: ip; for Behavioral motor impairment, share of mice tested: po
From the text: as §1, §2

[3] = system: 6 Hz limbic seizures (corneal stimulation); assay: animal or person; settings: Mus musculus, ip
From the text: (§3) These three tests are highly predictive of efficacy against human generalized tonic-clonic (MES), generalized myoclonic (sc PTZ), and refractory limbic (6 Hz) seizures, respectively.
(§4) Male, 18-25 g CFI mice and 100-125 g Sprague-Dawley rats (Charles River Laboratories, Wilmington, Mass.) were used as the experimental animals. Animals were pretreated intraperitoneally (i.p.) with increasing doses of HupA and tested at various times after administration for protection against tonic extension (MES test), minimal clonic (s.c. PTZ test), limbic (6 Hz), or secondarily generalized (kindled rat) seizures. Seizure testing was carried out as follows. For the MES and 6 Hz tests, a drop of anesthetic/electrolyte solution (0.5% tetracaine hydrochloride in 0.9% saline) was applied to the eyes of each animal prior to placement of the corneal electrodes.

[4] = system: subcutaneous Metrazol (pentylenetetrazol) seizures; assay: Subcutaneous Metrazol (SCMET / scPTZ) model, rats
From the text: The Subcutaneous Metrazole (SCMET) model is also an art-recognized test for therapeutic agents for epilepsy, and in particular, is useful for investigating petite mal seizures.

[5] = system: patients; settings: human, in vivo; cited from earlier work
[6] = system: hippocampal kindled seizures; assay: Rapid hippocampal kindling model, rat; format: in vivo; settings: 1 mg/kg, i.p., time of test ¼-3 h
Description: Seizure testing was carried out as follows.

[7] = system: 6 Hz limbic seizures (corneal stimulation); settings: for N/F, Time to Peak Effect: IP, 32 mA series; for COMMENT (observed effect): ip
From the text: as §3, §4

[8] = system: maximal electroshock (MES) tonic extension seizures; assay: Maximal Electroshock (MES) model, rats; settings: oral, 1 mg/kg
From the text: (§5) The maximal electroshock (MES) model is an art recognized test, useful to investigate the efficacy of therapeutic agents against grand mal seizures. Maximal seizures were induced by the application of electrical current to the brain via corneal electrodes. The stimulus parameters for mice were 50 mA in a pulse of 60 Hz for 200 ms.
(§6) Male, 18-25 g CFI mice and 100-125 g Sprague-Dawley rats (Charles River Laboratories, Wilmington, Mass.) were used as the experimental animals. Animals were pretreated intraperitoneally (i.p.) with increasing doses of HupA and tested at various times after administration for protection against tonic extension (MES test), minimal clonic (s.c. PTZ test), limbic (6 Hz), or secondarily generalized (kindled rat) seizures. Seizure testing was carried out as follows. For the MES and 6 Hz tests, a drop of anesthetic/electrolyte solution (0.5% tetracaine hydrochloride in 0.9% saline) was applied to the eyes of each animal prior to placement of the corneal electrodes. […] Animals not displaying secondarily generalize seizures were considered protected.

[9] = system: minimal motor impairment (ataxia, abnormal gait and stance); settings: rat, in vivo
[10] = system: maximal electroshock (MES) tonic extension seizures; assay: Maximal Electroshock (MES) model, mice; settings: for Mice protected against seizures, MES: 3 mg/kg; for N/F, MES time course: mice, I.P., 5 mg/kg
From the text: as §5, §6

**Q.** Which results are given for C/C=C1\[C@H]2C=C(C)C[C@]1(N)c1ccc(=O)[nH]c1C2 [Huperzine A]?
**A.** TD50 [1]: 0.83 mg/kg; Toxicity ([2]; 5 mg/kg I.P., within 30 minutes post administration): toxic in all animals; Behavioral impairment ([2]; mouse, in vivo): marked motor impairment; N/F (mice showing an effect / mice tested), TOX ([2]; mouse, in vivo, 0.1 mg/kg, 4 h): 0/4; N/F (mice showing an effect / mice tested), TOX ([2]; mouse, in vivo, 0.3 mg/kg, 4 h): 0/4; N/F (mice showing an effect / mice tested), TOX ([2]; mouse, in vivo, 1 mg/kg, 0.5 h): 4/4; N/F (mice showing an effect / mice tested), TOX ([2]; mouse, in vivo, 1 mg/kg, 4 h): 2/2; N/F (mice showing an effect / mice tested), TOX ([2]; mouse, in vivo, 3 mg/kg, 0.5 h): 8/8; N/F (mice showing an effect / mice tested), TOX ([2]; mouse, in vivo, 3 mg/kg, 4 h): 4/4; N/F (mice showing an effect / mice tested), TOX ([2]; mouse, in vivo, 10 mg/kg, 0.5 h): 4/4; N/F (mice showing an effect / mice tested), TOX ([2]; mouse, in vivo, 10 mg/kg, 4 h): 2/2; N/F (mice showing an effect / mice tested), TOX ([2]; mouse, in vivo, 30 mg/kg, 0.5 h): 4/4; N/F (mice showing an effect / mice tested), TOX ([2]; mouse, in vivo, 100 mg/kg, 0.5 h): 8/8; N/F (mice showing an effect / mice tested), TOX ([2]; mouse, in vivo, 300 mg/kg, 0.5 h): 4/4; Behavioral motor impairment, share of mice tested ([2]; mouse, in vivo, 2 mg/kg): 75%; Behavioral motor impairment, share of mice tested ([2]; mouse, in vivo, 4 mg/kg): 100%; ED50 ([3]; 1 h, 22 mA): 0.279 mg/kg; ED50 ([3]; 1 h, 32 mA): 0.339 mg/kg; ED50 ([3]; 22 mA): 0.28 mg/kg; ED50 ([3]; 32 mA): 0.34 mg/kg; ED50 ([3]; 44 mA): 0.78 mg/kg; Time of peak anticonvulsant activity ([4]; after p.o. administration of 1 mg/kg, test not given): one-hour; Maximum protection ([4]; p.o., doses tested 1, 2 and 4 mg/kg, at a non-toxic dose of 1 mg/kg, test not given): 62.5%; N/F, SCMET time course ([4]; rats, oral, 1 mg/kg, 0.25 h): 0/4; N/F, SCMET time course ([4]; rats, oral, 1 mg/kg, 0.5 h): 2/4; N/F, SCMET time course ([4]; rats, oral, 1 mg/kg, 1.0 h): 2/4; N/F, SCMET time course ([4]; rats, oral, 1 mg/kg, 2.0 h): 1/4; N/F, SCMET time course ([4]; rats, oral, 1 mg/kg, 4.0 h): 1/4; N/F, SCMET time course ([4]; rats, oral, 1 mg/kg, 6.0 h): 0/4; Time of peak activity post administration ([4]; rats, oral, 1 mg/kg, MES and SCMET models): between 30 minutes and two hours; Maximum Protection Observed ([4]; scPTZ, Rat, 2 mg/kg, p.o., time of test ½ h): 62.5%; Adverse effects in patients [5]: noted infrequently and were mainly cholinergic; Maximum Protection Observed [6]: 0%; Protection in the mouse 6 Hz test (FIG. 1) ([7]; 0.8 mg/kg): time-dependent protection; Maximum Protection Observed ([7]; 6 Hz, Mouse, 0.83 mg/kg, i.p., time of test 1 h): 100%; N/F, Time to Peak Effect ([7]; 0.83 mg/kg, 0.25 h): 1/4; N/F, Time to Peak Effect ([7]; 0.83 mg/kg, 0.5 h): 1/4; N/F, Time to Peak Effect ([7]; 0.83 mg/kg, 1.0 h): 4/4; N/F, Time to Peak Effect ([7]; 0.83 mg/kg, 2.0 h): 2/4; N/F, Time to Peak Effect ([7]; 0.83 mg/kg, 4.0 h): 0/4; Protection against 6 Hz seizures (FIG. 2) ([7]; mouse, in vivo): dose-dependent protection; COMMENT (observed effect) ([7]; mouse, in vivo, 0.18 mg/kg): Minimal motor impairment; COMMENT (observed effect) ([7]; mouse, in vivo, 0.2 mg/kg): Tremors; COMMENT (observed effect) ([7]; mouse, in vivo, 0.35 mg/kg): Minimal motor impairment; N/F, MES time course ([8]; 0.25 h): 0/4; N/F, MES time course ([8]; 0.5 h): 0/4; N/F, MES time course ([8]; 1.0 h): 1/4; N/F, MES time course ([8]; 2.0 h): 1/4; N/F, MES time course ([8]; 4.0 h): 0/4; N/F, MES time course ([8]; 6.0 h): 0/4; Behavioral impairment [9]: marked motor impairment; Protection in the mouse MES test (FIG. 1) ([10]; 1 mg/kg): time-dependent protection; Mice protected against seizures, MES ([10]; 30 minutes post administration): 33%; Mice protected against seizures, MES ([10]; four hours post administration): 100%; Maximum Protection Observed ([10]; MES, Mouse, 1 mg/kg, i.p., time of test 1 & 2 h): 75%; N/F (mice showing an effect / mice tested), MES ([10]; i.p., 0.1 mg/kg SOL, 4.0 h): 0/4; N/F (mice showing an effect / mice tested), MES ([10]; i.p., 0.3 mg/kg SOL, 4.0 h): 0/4; N/F (mice showing an effect / mice tested), MES ([10]; i.p., 1 mg/kg SUS, 0.5 h): 0/1; N/F (mice showing an effect / mice tested), MES ([10]; i.p., 1 mg/kg SUS, 4.0 h): 1/1; N/F (mice showing an effect / mice tested), MES ([10]; i.p., 3 mg/kg SUS, 0.5 h): 1/3; N/F (mice showing an effect / mice tested), MES ([10]; i.p., 3 mg/kg SUS, 4.0 h): 3/3; N/F (mice showing an effect / mice tested), MES ([10]; i.p., 10 mg/kg SUS, 0.5 h): 1/1; N/F (mice showing an effect / mice tested), MES ([10]; i.p., 10 mg/kg SUS, 4.0 h): 1/1; N/F, MES time course ([10]; 0.5 h): 1/4; N/F, MES time course ([10]; 1.0 h): 3/4; N/F, MES time course ([10]; 2.0 h): 3/4; N/F, MES time course ([10]; 4.0 h): 3/4; N/F, MES time course ([10]; 6.0 h): 4/4
